In PMC4847484, “Chemical generation and modification of peptides containing multiple dehydroalanines” (Chemical Communications (Cambridge, England), 2015) one finds IC50 and ring closure, yield after HPLC data, which are given here for 10 substances.

In one data set the target is human plasma kallikrein (Homo sapiens, UniProt P03952). As to the kind of experiment: Kallikrein inhibition assay (residual HPK activity, fluorogenic substrate Z-Phe-Arg-AMC). It counts as biochemical.
For data set [1] the following is noted: the molecule shown is the open-chain precursor, crosslinker bond, 31-membered ring.
[2] abbreviates: TBMB/NH4HCO3, aq NH4HCO3 (pH 8)/MeCN, 1.67 mM.

Like-named read-outs stand apart in the source and are kept apart here. Positions of bridges follow the written chain, without caps; N, C: chain ends. No end group written: not given here.

Chain of human plasma kallikrein (P03952 391-638 limits assumed): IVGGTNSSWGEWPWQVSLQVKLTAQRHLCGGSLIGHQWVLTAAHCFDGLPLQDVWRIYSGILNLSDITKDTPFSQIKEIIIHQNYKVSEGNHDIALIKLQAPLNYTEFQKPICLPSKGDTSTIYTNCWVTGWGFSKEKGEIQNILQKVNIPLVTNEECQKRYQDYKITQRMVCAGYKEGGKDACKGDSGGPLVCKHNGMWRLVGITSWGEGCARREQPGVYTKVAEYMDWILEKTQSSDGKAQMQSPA
Chain of human plasma kallikrein (P03952 20-390 partner limits assumed): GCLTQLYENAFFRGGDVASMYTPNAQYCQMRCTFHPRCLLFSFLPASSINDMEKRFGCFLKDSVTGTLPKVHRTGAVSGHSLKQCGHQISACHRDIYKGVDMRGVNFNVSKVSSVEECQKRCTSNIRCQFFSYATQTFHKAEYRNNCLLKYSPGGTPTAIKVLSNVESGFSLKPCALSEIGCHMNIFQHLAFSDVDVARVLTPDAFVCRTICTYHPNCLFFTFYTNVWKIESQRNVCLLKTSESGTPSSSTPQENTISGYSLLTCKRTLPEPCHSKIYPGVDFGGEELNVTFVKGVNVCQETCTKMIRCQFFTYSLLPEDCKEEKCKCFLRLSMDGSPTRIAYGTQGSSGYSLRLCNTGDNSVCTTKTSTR

In general, IC50 refers to the midpoint of a concentration-inhibition curve. In the case of “13: stereochemically scrambled bicyclic peptide mixture from cyclisation of 12 with trithiol 2 (ACSDRFRNCPADEALCG; linker 2-9-16 via 1,3,5‑tris(mercaptomethyl)benzene; also: mixture of 8 stereoisomers (D/L at Cys2, Cys9, Cys16)) [compound 13]”, the IC50 amounted to 238 ± 21 nM with human plasma kallikrein (crude reaction mixture of the conversion of 12 to 13, before purification, same kallikrein inhibition assay) and 144 ± 31 nM with human plasma kallikrein (purified peptide, HPK incubated 30 min at room temperature with bicyclic peptide, substrate Z-Phe-Arg-AMC, Tris 10 mM pH 7.4, NaCl, MgCl2, CaCl2, 0.1% BSA, 0.01% Triton X-100, 5% DMSO, ex 355 / em 460 nm, logistic fit).

Turning to “H-Ala-Cys-Ser-Asp-Arg-Phe-Arg-Asn-Cys-Pro-Ala-Asp-Glu-Ala-Leu-Cys-Gly-NH2?”, the ring closure, yield after HPLC in data set [1] (setting [2]) was determined as 29%.

Take “H-Ala-Cys-Ser-Asp-Arg-Phe-Arg-Asn-Cys-Pro-Ala-Asp-Glu-Ala-Leu-dCys-Gly-NH2?”: the ring closure, yield after HPLC in data set [1] (setting [2]) was 10%.

With “H-Ala-Cys-Ser-Asp-Arg-Phe-Arg-Asn-dCys-Pro-Ala-Asp-Glu-Ala-Leu-Cys-Gly-NH2?”, the ring closure, yield after HPLC in data set [1] (setting [2]) turned out to be 16%.

“H-Ala-Cys-Ser-Asp-Arg-Phe-Arg-Asn-dCys-Pro-Ala-Asp-Glu-Ala-Leu-dCys-Gly-NH2?” gave a ring closure, yield after HPLC in data set [1] (setting [2]) of 24%.

For the substance “H-Ala-Dha-Ser-Asp-Arg-Phe-Arg-Asn-Dha-Pro-Ala-Asp-Glu-Ala-Leu-Dha-Gly-NH2”, the ring closure, yield after HPLC in data set [1] (1,3,5-tris(mercaptomethyl)benzene/K2CO3, H2O/DMF 1:1, 1.15 mM, 37.0 °C) stood at 43%.

In data set [1] (setting [2]), “H-Ala-dCys-Ser-Asp-Arg-Phe-Arg-Asn-Cys-Pro-Ala-Asp-Glu-Ala-Leu-Cys-Gly-NH2?” returned a ring closure, yield after HPLC of 26%.

For the substance “H-Ala-dCys-Ser-Asp-Arg-Phe-Arg-Asn-Cys-Pro-Ala-Asp-Glu-Ala-Leu-dCys-Gly-NH2?”, the ring closure, yield after HPLC in data set [1] (setting [2]) is 16%.

The substance “H-Ala-dCys-Ser-Asp-Arg-Phe-Arg-Asn-dCys-Pro-Ala-Asp-Glu-Ala-Leu-Cys-Gly-NH2?” showed a ring closure, yield after HPLC in data set [1] (setting [2]) of 26%.

In turn, “H-Ala-dCys-Ser-Asp-Arg-Phe-Arg-Asn-dCys-Pro-Ala-Asp-Glu-Ala-Leu-dCys-Gly-NH2?” showed a ring closure, yield after HPLC in data set [1] (setting [2]) of 26%.
